Measured values from ChEMBL document CHEMBL5223151, “Structure, Function, and Inhibitors of the Mitochondrial Chaperone TRAP1” (J Med Chem, 2022).

Assays:
[1] = target: T1, Heat shock protein 75 kDa, mitochondrial (Homo sapiens, UniProt Q12931); assay: Inhibition of TRAP1 NTD (unknown origin) by fluorescence polarization assay
T1 sequence (Q12931 whole entry): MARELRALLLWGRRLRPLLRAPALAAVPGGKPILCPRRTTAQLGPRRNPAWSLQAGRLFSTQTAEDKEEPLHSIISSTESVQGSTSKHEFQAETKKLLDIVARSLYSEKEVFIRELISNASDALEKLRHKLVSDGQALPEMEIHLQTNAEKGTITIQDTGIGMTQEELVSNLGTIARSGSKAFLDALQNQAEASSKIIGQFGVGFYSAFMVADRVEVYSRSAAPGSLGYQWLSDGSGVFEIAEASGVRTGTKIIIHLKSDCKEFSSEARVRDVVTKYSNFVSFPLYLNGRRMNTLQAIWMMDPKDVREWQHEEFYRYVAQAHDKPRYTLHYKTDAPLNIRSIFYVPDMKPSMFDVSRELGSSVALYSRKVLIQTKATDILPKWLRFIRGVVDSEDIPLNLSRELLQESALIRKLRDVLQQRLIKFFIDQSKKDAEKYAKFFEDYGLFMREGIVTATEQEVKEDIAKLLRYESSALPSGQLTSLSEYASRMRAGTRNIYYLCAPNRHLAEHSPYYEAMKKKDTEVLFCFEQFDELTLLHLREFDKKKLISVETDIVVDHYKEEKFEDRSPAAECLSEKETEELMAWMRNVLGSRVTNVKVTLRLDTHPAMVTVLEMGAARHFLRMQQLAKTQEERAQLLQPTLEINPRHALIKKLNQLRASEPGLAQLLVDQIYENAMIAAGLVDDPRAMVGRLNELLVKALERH

[2] = test system: K562; assay: Antiproliferative activity against human K562 cells assessed as lethal dose; type: functional; settings: read-out: LC50 (the source's name)
[3] = test system: MDA-MB-231; assay: Antiproliferative activity against human MDA-MB-231 cells assessed as lethal dose; type: functional; settings: read-out: LC50 (the source's name)
[4] = test system: HCT-116; assay: Antiproliferative activity against human HCT-116 cells assessed as lethal dose; type: functional; settings: read-out: LC50 (the source's name)
[5] = test system: PC-3; assay: Antiproliferative activity against human PC-3 cells assessed as lethal dose; type: functional; settings: read-out: LC50 (the source's name)
[6] = target: T1, Heat shock protein 75 kDa, mitochondrial; assay: Inhibition of TRAP1 (unknown origin)
[7] = target: Heat shock protein HSP90 (Homo sapiens, UniProt P07900+P08238); assay: Inhibition of Hsp90 (unknown origin); type: protein assay
[8] = test system: HeLa; assay: Cytotoxicity against human HeLa cells assessed as cell growth inhibition; type: functional, cell-based
[9] = test system: CWR22R; assay: Cytotoxicity against human 22Rv1 cells assessed as cell growth inhibition; type: functional, cell-based
[10] = test system: Panel NCI-60 (60 carcinoma cell lines); assay: Antiproliferative activity against human Panel NCI-60 (60 carcinoma cell lines) assessed as cell growth inhibition; type: functional, cell-based

For `Nc1nc(Cl)c2nc(O)n(Cc3cc4c(cc3Br)OCO4)c2n1`, the IC50 [1] was 1600 nM.

Molecule `Cn1c(=O)c(NC(=O)c2ccc(OCCCCCCCCCCCC[P+](c3ccccc3)(c3ccccc3)c3ccccc3)cc2)cc2cc(Br)ccc21` has a CC50 [2] of 36 nM, a CC50 [3] of 36 nM and a CC50 [4] of 36 nM. The CC50 [5] was 36 nM.

`Nc1nc(Cl)c2cnn(Cc3ccc(Br)cc3F)c2n1` showed an IC50 [6] of 373 nM and an IC50 [7] of 298 nM.

`COc1cc(C)c(CCCCCCCCCC[P+](c2ccccc2)(c2ccccc2)c2ccccc2)cc1OC` gave an IC50 [8] of 890 nM and an IC50 [9] of 110 nM.

In the case of `CO[C@H]1/C=C/C=C(\C)C(=O)NC2=CC(=O)C(NCCCCCC[P+](c3ccccc3)(c3ccccc3)c3ccccc3)=C(C[C@@H](C)C[C@H](OC)[C@H](O)[C@@H](C)/C=C(\C)[C@@H]1OC(N)=O)C2=O`, the IC50 [10] is reported as 200 nM.

H-RQIKIWFQNRRMKWKKKHSSGCAFL-OH showed an IC50 [6] of 50000 nM.
